Assay results as given in ChEMBL document CHEMBL1770113, “Improved synthesis of 15-deoxyspergualin analogs using the Ugi multi-component reaction” (Bioorg Med Chem Lett, 2011).
Converted amounts (≈) assume the structure as drawn.

Tests used:
[1] = Chemical stability of the compound in aqueous buffer assessed as half life at pH 7 by thin layer chromatography; format: physicochemical
Staphylococcus aureus = test: Antibacterial activity against Staphylococcus aureus; format: functional
Bacillus subtilis = test: Antibacterial activity against Bacillus subtilis; format: functional
[2] = Chemical stability of the compound in aqueous buffer assessed as half life at pH 5 by thin layer chromatography; format: physicochemical; conditions: for half-life: aqueous buffer; for Stability: buffer
[3] = Chemical stability of the compound in aqueous buffer assessed as half life at pH 10 by thin layer chromatography; format: physicochemical; conditions: for half-life: aqueous buffer
[4] = Chemical stability of the compound in aqueous buffer assessed as half life at pH 8 by thin layer chromatography; format: physicochemical; conditions: for half-life: aqueous buffer
Escherichia coli = test: Antibacterial activity against Escherichia coli; format: functional

half-life [1] [h] | MIC (Staphylococcus aureus) [mg/L] | MIC (Bacillus subtilis) [mg/L] | half-life [2] [h] | half-life [3] [h] | half-life [4] [h] | MIC (Escherichia coli) [mg/L] | Stability [2] | Stability ([4]; buffer) | Stability ([3]; buffer) | Compound
100 | 10 (≈ 26.9 µM) | 10 (≈ 26.9 µM) | 90 | 3 | 260 | > 250 |  |  |  | N=C(N)NCCCCCCC(=O)NCC(=O)NCCCCNCCCN
190 | 50 (≈ 125 µM) | 50 (≈ 125 µM) | 140 | 48 | 720 | > 250 |  |  |  | COC(NC(=O)CCCCCCNC(=N)N)C(=O)NCCCCNCCCN (racemic)
440 | 50 (≈ 95 µM) | 50 (≈ 95 µM) |  | 420 |  | > 250 | Unstable | Unstable |  | N=C(N)NCCCCCCC(=O)NC(C(=O)NCCCCNCCCN)c1ccc(Br)cc1 (racemic)
203 | 50 (≈ 105 µM) | 50 (≈ 105 µM) |  |  | 563 | > 250 | Unstable |  | Unstable | N=C(N)NCCCCCCC(=O)NC(CCc1ccccc1)C(=O)NCCCCNCCCN (racemic)
